Measured values taken from PMC10247784, “Physiological activation of human and mouse bitter taste receptors by bile acids” (Communications Biology, 2023).
“And” between values parts separate entries of the source, which are not always exact repeats. Identical values can stand only once.

Molecular target: T1, human TAS2R14 (Homo sapiens, UniProt Q9NYV8)
T1 construct: expressed in transfected cells; host or cells: HEK293T-Gα16gust44
T1 sequence (Q9NYV8 1-317): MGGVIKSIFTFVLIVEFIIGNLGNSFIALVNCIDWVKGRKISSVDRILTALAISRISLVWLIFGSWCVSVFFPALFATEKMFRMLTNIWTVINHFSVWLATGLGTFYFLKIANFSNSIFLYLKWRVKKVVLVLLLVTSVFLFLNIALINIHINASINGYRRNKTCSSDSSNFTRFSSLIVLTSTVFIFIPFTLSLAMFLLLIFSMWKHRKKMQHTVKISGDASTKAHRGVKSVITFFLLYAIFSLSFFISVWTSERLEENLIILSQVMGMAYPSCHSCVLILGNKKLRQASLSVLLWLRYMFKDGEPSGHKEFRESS
Test: Calcium imaging assay (FLIPR), HEK293T-Gα16gust44 cells transfected with human TAS2R14
Assay type: cell-based
Conditions: for RLU: TAS2R14 trace
Method in brief: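 Bile acids from DMSO stocks are applied to dye-loaded cells one day after transient receptor transfection, and calcium-dependent fluorescence is recorded. Maximum signal is standardized to basal and normalized to buffer-only wells, with empty-vector signal subtracted.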

Efficacy = maximal amplitude (ΔF/F) (TAS2R14, bile acids, mean): 0.05441
Efficacy (maximal amplitude ΔF/F), individual data points (TAS2R14, bile acids, single replicates, listed as CDCA): 0.0148 and 0.07816 and 0.07028
Δ F/F (TAS2R14, conc. 0,01 mM): 0.006116
Δ F/F (TAS2R14, conc. 0,03 mM): 0.05441
Δ F/F (TAS2R14, conc. 0,00003 mM): -0.01882
Δ F/F (TAS2R14, conc. 0,0001 mM): -0.01861
Δ F/F (TAS2R14, conc. 0,0003 mM): -0.02118
Δ F/F (TAS2R14, conc. 0,001 mM): -0.02299
Δ F/F (TAS2R14, conc. 0,003 mM): -0.02084
RLU (Time (s) 0): 0 RLU
RLU (Time (s) 2 (Taurocholic Acid 2.016)): -49.1645 RLU
RLU (Time (s) 4 (Taurocholic Acid 4.016)): -25.5098 RLU
RLU (Time (s) 6 (Taurocholic Acid 6.016)): -14.6279 RLU
RLU (Time (s) 8 (Taurocholic Acid 8.016)): -24.697 RLU
RLU (Time (s) 12 (Taurocholic Acid 12.016)): -44.0879 RLU
RLU (Time (s) 14 (Taurocholic Acid 14.016)): -37.1122 RLU
RLU (Time (s) 16 (Taurocholic Acid 16.016)): -43.9695 RLU
RLU (Time (s) 18 (Taurocholic Acid 18.016)): -32.8497 RLU
RLU (Time (s) 18.797 (Chenodeoxycholic Acid 18.765)): 7.956 RLU
RLU (Time (s) 20.797 (Chenodeoxycholic Acid 20.781)): 109.495 RLU
RLU (Time (s) 22.797 (Chenodeoxycholic Acid 22.781)): 144.429 RLU
RLU (Time (s) 24.797 (Chenodeoxycholic Acid 24.781)): 188.481 RLU
RLU (Time (s) 26.797 (Chenodeoxycholic Acid 26.781)): 194.457 RLU
RLU (Time (s) 28.797 (Chenodeoxycholic Acid 28.781)): 226.874 RLU
RLU (Time (s) 30.797 (Chenodeoxycholic Acid 30.781)): 234.892 RLU
RLU (Time (s) 32.797 (Chenodeoxycholic Acid 32.781)): 237.826 RLU
RLU (Time (s) 34.797 (Chenodeoxycholic Acid 34.781)): 263.919 RLU
RLU (Time (s) 36.797 (Chenodeoxycholic Acid 36.781)): 289.916 RLU
RLU (Time (s) 38.797 (Chenodeoxycholic Acid 38.781)): 280.38 RLU
RLU (Time (s) 40.797 (Chenodeoxycholic Acid 40.781)): 364.7 RLU
RLU (Time (s) 42.797 (Chenodeoxycholic Acid 42.781)): 389.665 RLU
RLU (Time (s) 44.797 (Chenodeoxycholic Acid 44.781)): 409.588 RLU
RLU (Time (s) 46.797 (Chenodeoxycholic Acid 46.781)): 412.285 RLU
RLU (Time (s) 48.797 (Chenodeoxycholic Acid 48.781)): 462.382 RLU
RLU (Time (s) 50.797 (Chenodeoxycholic Acid 50.781)): 489.05 RLU
RLU (Time (s) 52.797 (Chenodeoxycholic Acid 52.781)): 480.824 RLU
RLU (Time (s) 54.797 (Chenodeoxycholic Acid 54.781)): 484 RLU
RLU (Time (s) 56.797 (Chenodeoxycholic Acid 56.781)): 514.521 RLU
RLU (Time (s) 58.797 (Chenodeoxycholic Acid 58.781)): 561.552 RLU
RLU (Time (s) 60.797 (Chenodeoxycholic Acid 60.781)): 547.999 RLU
RLU (Time (s) 62.797 (Chenodeoxycholic Acid 62.781)): 553.072 RLU
RLU (Time (s) 64.797 (Chenodeoxycholic Acid 64.781)): 596.368 RLU
RLU (Time (s) 66.797 (Chenodeoxycholic Acid 66.781)): 582.133 RLU
RLU (Time (s) 68.797 (Chenodeoxycholic Acid 68.781)): 591.364 RLU
RLU (Time (s) 70.797 (Chenodeoxycholic Acid 70.781)): 612.747 RLU
RLU (Time (s) 72.797 (Chenodeoxycholic Acid 72.781)): 626.948 RLU
RLU (Time (s) 74.797 (Chenodeoxycholic Acid 74.781)): 600.862 RLU
RLU (Time (s) 76.797 (Chenodeoxycholic Acid 76.781)): 644.716 RLU
RLU (Time (s) 78.797 (Chenodeoxycholic Acid 78.781)): 648.451 RLU
RLU (Time (s) 80.797 (Chenodeoxycholic Acid 80.781)): 604.524 RLU
RLU (Time (s) 82.797 (Chenodeoxycholic Acid 82.781)): 653.18 RLU
RLU (Time (s) 84.797 (Chenodeoxycholic Acid 84.781)): 678.438 RLU
RLU (Time (s) 86.797 (Chenodeoxycholic Acid 86.781)): 660.126 RLU
RLU (Time (s) 88.797 (Chenodeoxycholic Acid 88.781)): 638.796 RLU
RLU (Time (s) 90.797 (Chenodeoxycholic Acid 90.781)): 637.499 RLU
RLU (Time (s) 92.797 (Chenodeoxycholic Acid 92.781)): 628.913 RLU
RLU (Time (s) 94.797 (Chenodeoxycholic Acid 94.781)): 638.53 RLU
RLU (Time (s) 96.797 (Chenodeoxycholic Acid 96.781)): 632.564 RLU
RLU (Time (s) 98.797 (Chenodeoxycholic Acid 98.781)): 628.21 RLU
RLU (Time (s) 100.797 (Chenodeoxycholic Acid 100.781)): 613.502 RLU
RLU (Time (s) 102.797 (Chenodeoxycholic Acid 102.781)): 604.41 RLU
RLU (Time (s) 104.797 (Chenodeoxycholic Acid 104.781)): 599.892 RLU
RLU (Time (s) 106.797 (Chenodeoxycholic Acid 106.781)): 563.223 RLU
RLU (Time (s) 108.797 (Chenodeoxycholic Acid 108.781)): 594.081 RLU
RLU (Time (s) 110.797 (Chenodeoxycholic Acid 110.781)): 586.278 RLU
RLU (Time (s) 112.797 (Chenodeoxycholic Acid 112.781)): 550.791 RLU
RLU (Time (s) 114.797 (Chenodeoxycholic Acid 114.781)): 544.911 RLU
RLU (Time (s) 116.797 (Chenodeoxycholic Acid 116.781)): 535.277 RLU
RLU (Time (s) 118.797 (Chenodeoxycholic Acid 118.781)): 521.394 RLU
RLU (Time (s) 120.797 (Chenodeoxycholic Acid 120.781)): 516.9 RLU
RLU (Time (s) 122.797 (Chenodeoxycholic Acid 122.781)): 506.351 RLU
RLU (Time (s) 124.797 (Chenodeoxycholic Acid 124.781)): 491.947 RLU
RLU (Time (s) 126.797 (Chenodeoxycholic Acid 126.781)): 464.952 RLU
RLU (Time (s) 128.797 (Chenodeoxycholic Acid 128.781)): 465.396 RLU
RLU (Time (s) 130.797 (Chenodeoxycholic Acid 130.781)): 467.418 RLU
RLU (Time (s) 132.797 (Chenodeoxycholic Acid 132.781)): 469.949 RLU
RLU (Time (s) 134.797 (Chenodeoxycholic Acid 134.781)): 415.628 RLU
RLU (Time (s) 136.797 (Chenodeoxycholic Acid 136.781)): 432.183 RLU
RLU (Time (s) 137.562 (Taurocholic Acid 137.563, Chenodeoxycholic Acid 137.546)): 452.404 RLU
RLU (Time (s) 143.578 (Taurocholic Acid 143.563, Chenodeoxycholic Acid 143.546)): 380.071 RLU
RLU (Time (s) 149.578 (Taurocholic Acid 149.563, Chenodeoxycholic Acid 149.546)): 382.743 RLU
RLU (Time (s) 155.578 (Taurocholic Acid 155.563, Chenodeoxycholic Acid 155.546)): 336.968 RLU
RLU (Time (s) 161.578 (Taurocholic Acid 161.563, Chenodeoxycholic Acid 161.546)): 359.379 RLU
RLU (Time (s) 167.578 (Taurocholic Acid 167.563, Chenodeoxycholic Acid 167.546)): 343.975 RLU
RLU (Time (s) 173.578 (Taurocholic Acid 173.563, Chenodeoxycholic Acid 173.546)): 278.705 RLU
RLU (Time (s) 179.578 (Taurocholic Acid 179.563, Chenodeoxycholic Acid 179.546)): 300.666 RLU
RLU (Time (s) 191.578 (Taurocholic Acid 191.563, Chenodeoxycholic Acid 191.546)): 185.369 RLU
RLU (Time (s) 197.578 (Taurocholic Acid 197.563, Chenodeoxycholic Acid 197.546)): 161.87 RLU
RLU (Time (s) 209.578 (Taurocholic Acid 209.563, Chenodeoxycholic Acid 209.546)): 179.275 RLU
RLU (Time (s) 221.578 (Taurocholic Acid 221.563, Chenodeoxycholic Acid 221.546)): 182.465 RLU
RLU (Time (s) 233.578 (Taurocholic Acid 233.563, Chenodeoxycholic Acid 233.546)): 198.132 RLU
RLU (Time (s) 239.578 (Taurocholic Acid 239.563, Chenodeoxycholic Acid 239.546)): 183.585 RLU
RLU (Time (s) 245.578 (Taurocholic Acid 245.563, Chenodeoxycholic Acid 245.546)): 212.748 RLU
RLU (Time (s) 293.578 (Taurocholic Acid 293.563, Chenodeoxycholic Acid 293.546)): 209.963 RLU
RLU (Time (s) 299.578 (Taurocholic Acid 299.563, Chenodeoxycholic Acid 299.546)): 216.371 RLU
RLU (Time (s) 305.578 (Taurocholic Acid 305.563, Chenodeoxycholic Acid 305.546)): 208.994 RLU
RLU (Time (s) 311.578 (Taurocholic Acid 311.563, Chenodeoxycholic Acid 311.546)): 184.812 RLU
RLU (Time (s) 317.578 (Taurocholic Acid 317.563, Chenodeoxycholic Acid 317.546)): 189.014 RLU
RLU (Time (s) 323.578 (Taurocholic Acid 323.563, Chenodeoxycholic Acid 323.546)): 182.748 RLU
RLU (Time (s) 329.578 (Taurocholic Acid 329.563, Chenodeoxycholic Acid 329.546)): 195.394 RLU
RLU (Time (s) 335.578 (Taurocholic Acid 335.563, Chenodeoxycholic Acid 335.546)): 190.135 RLU
RLU (Time (s) 341.578 (Taurocholic Acid 341.563, Chenodeoxycholic Acid 341.546)): 187.029 RLU
RLU (Time (s) 347.578 (Taurocholic Acid 347.563, Chenodeoxycholic Acid 347.546)): 164.841 RLU
RLU (Time (s) 353.578 (Taurocholic Acid 353.563, Chenodeoxycholic Acid 353.546)): 198.762 RLU
RLU (Time (s) 359.578 (Taurocholic Acid 359.563, Chenodeoxycholic Acid 359.546)): 181.785 RLU
Activation threshold concentration TAS2R14 (lowest concentration with significantly increased fluorescence vs empty vector (p < 0.01)): 30 µM
Receptor response TAS2R14 (screening): activated
Structure (SMILES): C[C@H](CCC(=O)O)[C@H]1CC[C@H]2[C@@H]3[C@H](O)C[C@@H]4C[C@H](O)CC[C@]4(C)[C@H]3CC[C@]12C [Chenodeoxycholic Acid, chenodeoxycholic acid]
